The text below walks through data of patent EP4079295A1, “COMPOSITION HAVING IMPROVED SOLUBILITY AND BIOAVAILABILITY OF OLAPARIB” (Samyang Holdings Corporation, priority 2019, dated 2021).

For series [1] the following is noted: cited from earlier work.
Series [2] is described as follows: Test Example 1: drug solubility, simple mixture versus solid dispersion. It counts as physicochemical. The settings on record: thermodynamic from solid, 20 ml, amount corresponding to 400 mg of Olaparib, 37°C, 100 rpm. How it is done: To 20 ml of distilled water and pH 1.2 buffer, each of the solid dispersions of Example 1 and 4 and the simple mixtures of Comparative Examples 2 and 3 corresponding to 400 mg of Olaparib was added, and stirred in an incubator at 37°C with 100 rpm for 1 hour. The test solution was filtered with RC syringe filter (0.2 µm) and 1 mL of the filtered solution was taken and diluted with 2 mL of the following diluent solution, and then the amount was measured according to Olaparib amount analysis method.
• 1) Diluent solution preparation Diluent solution - water (DW): acetonitrile (CAN)=1:1 • 2) Operation • Detector: UV absorption spectrometer 254 nm • Column: Nova-Pak C18 Column, 60Å, 4 µm, 3.9 mm × 150 mm • Flow rate: 1.2 ml/min • Injection amount: 5 µl • Column temperature: 35°C • Run time: 16 min • Mobile phase [Table 4]

Molecules are shown by their SMILES. Values after ≈ are worked out from the molar mass of the structure shown.

Consider `O=C(c1cc(Cc2n[nH]c(=O)c3ccccc23)ccc1F)N1CCN(C(=O)C2CC2)CC1` [Olaparib], for which, in series [1], the water solubility was 100 to 130 µg/mL. Also, the pKa (as a rule, the negative logarithm of the acid dissociation constant) in series [1] (weak acidic) was 12.07. Also, the solubility (usually the dissolved amount per volume that the medium holds) at 1 h in series [2] (simulated gastric fluid, pH 1.2 buffer) was 100 µg/mL (≈ 230 µM); in series [2] (water (distilled water)), 100 µg/mL (≈ 230 µM).
